According to US20120190701A1, “RENIN INHIBITORS” (Merck Sharp & Dohme Corp., priority 2009, published 2012):

Legend:
Human recombinant renin = target: T1, Human recombinant renin (Homo sapiens, UniProt P00797); experiment: Inhibition of human recombinant renin (buffer assay, quenched fluorescent peptide); type: biochemical; details: buffer: 50 mM MOPS pH 7.4, 100 mM NaCl, 0.002% Tween 20; 37° C., 3 hours
T1 construct: purchased Proteos
T1 sequence (P00797 67-406): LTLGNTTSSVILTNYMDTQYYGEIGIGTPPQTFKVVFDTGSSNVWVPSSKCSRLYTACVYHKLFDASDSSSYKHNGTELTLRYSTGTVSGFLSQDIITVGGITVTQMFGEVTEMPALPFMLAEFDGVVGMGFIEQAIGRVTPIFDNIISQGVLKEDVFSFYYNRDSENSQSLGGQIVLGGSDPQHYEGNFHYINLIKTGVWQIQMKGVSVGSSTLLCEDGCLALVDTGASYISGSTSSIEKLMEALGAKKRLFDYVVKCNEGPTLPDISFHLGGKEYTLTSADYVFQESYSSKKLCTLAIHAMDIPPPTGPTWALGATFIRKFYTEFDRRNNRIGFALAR
Protocol: Background fluorescence at t=0 is subtracted from the measurement at t=3 hours. Inhibitory activity of the compounds is expressed as IC50.

[1] = target: T2, recombinant renin in human plasma (Homo sapiens, UniProt P00797); experiment: Inhibition of renin in human plasma (quenched fluorescent peptide); type: biochemical; details: human EDTA plasma with 1 nM recombinant renin added; 37° C., 1 hour
T2 construct: purchased Proteos
T2 sequence (P00797 67-406): T1 sequence (P00797 67-406)
Protocol: Human EDTA-collected plasma is rapidly thawed in warm water and centrifuged at 2900 g for 15 minutes at 4° C. The supernatant is collected and recombinant renin (Proteos) is added at a final concentration of 1 nM. […] The plate is incubated at 37° C. for 1 hour. […] Background fluorescence at t=0 is subtracted from the measurement at t=1 hour. Inhibitory activity of the compounds is expressed as IC50.

SMILES | IC50 (Human recombinant renin) | IC50 [1]
COCCc1cc(C)c(C)c(CN(C(=O)[C@H]2CNCC[C@@]23OCc2cc(F)c(F)cc23)C2CC2)c1 (relative stereo) [Example 45, (cis-1,3′)-N-Cyclopropyl-5,6-difluoro-N-[5-(2-methoxyethyl)-2,3-dimethylbenzyl]-3H-spiro[2-benzofuran-1,4′-piperidine]-3′-carboxamide] | 100 pM | 600 pM
COCCCc1cc(CCCOC)c(Cl)c(CN(C(=O)[C@H]2CNCC[C@@]23OCc2cc(F)c(F)cc23)C2CC2)c1 (relative stereo) [Example 53] | 100 pM | 1300 pM
COCCCc1cc(CN(C(=O)[C@H]2CNCC[C@@]23OCc2cc(F)c(F)cc23)C2CC2)c2ncccc2c1 (relative stereo) [Example 54, (cis-1,3′)-N-Cyclopropyl-5,6-difluoro-N-{[6-(3-methoxypropyl)-8-quinolinyl]methyl}-3H-spiro[2-benzofuran-1,4′-piperidine]-3′-carboxamide] | 100 pM | 3500 pM

Continued by falling IC50 (Human recombinant renin), values first:

IC50 (Human recombinant renin) | IC50 [1] | SMILES
1200 pM | 4500 pM | O=C([C@H]1CNCC[C@@]12OCc1cc(F)c(F)cc12)N(Cc1c[nH]c2cccc(F)c12)C1CC1 (relative stereo) [Example 56, (cis-1,3′)-N-cyclopropyl-5,6-difluoro-N-[(4-fluoro-1H-indol-3-yl)methyl]-3H-spiro[2-benzofuran-1,4′-piperidine]-3′-carboxamide]
700 pM | 2300 pM | COCCCc1cc(CN(C(=O)[C@H]2CNCC[C@@]23OCc2cc(F)c(F)cc23)C2CC2)c2ccccc2n1 (relative stereo) [Example 48, (cis-1,3′)-N-Cyclopropyl-5,6-difluoro-N-{[2-(3-methoxypropyl)-4-quinolinyl]methyl}-3H-spiro[2-benzofuran-1,4′-piperidine]-3′-carboxamide]
